In US20180370927A1, “MICROBIOCIDAL OXADIAZOLE DERIVATIVES” (SYNGENTA PARTICIPATIONS AG, priority 2015, published 2018):

Experiments:
[1] = system: Glomerella lacenarium (Colletotrichum lacenarium); experiment: Glomerella lacenarium (Colletotrichum lacenarium) liquid culture / cucumber / preventative (anthracnose); assay type: cell-based; conditions: 20 ppm in the applied formulation, liquid culture in PDB, 24° C., 3 to 4 days after application, read-out: disease control (inhibition of growth, photometric) compared to untreated control
Method: Mycelia fragments or conidia suspensions of a fungus prepared either freshly from liquid cultures of the fungus or from cryogenic storage, are directly mixed into nutrient broth. DMSO solutions of the test compound (max. 10 mg/ml) are diluted with 0.025% Tween20 by a factor of 50 and 10 μL of this solution is pipetted into a microtiter plate (96-well format). The nutrient broth containing the fungal spores/mycelia fragments is then added to give an end concentration of the tested compound. The test plates are incubated in the dark at 24° C. and 96% relative humidity. The inhibition of fungal growth is determined photometrically after 2 to 7 days, depending on the pathosystem, and percent antifungal activity relative to the untreated check is calculated.
Example 4: Fungicidal Activity Against Glomerella lacenarium (Colletotrichum lacenarium) Liquid Culture/Cucumber/Preventative (Anthracnose)
Conidia of the fungus from cryogenic storage are directly mixed into nutrient broth (PDB—potato dextrose broth). After placing a (DMSO) solution of test compound into a microtiter plate (96-well format), the nutrient broth containing the fungal spores is added. The test plates are incubated at 24° C. and the inhibition of growth is measured photometrically 3 to 4 days after application.
The following compounds at 20 ppm in the applied formulation give at least 80% disease control in this test when compared to untreated control under the same conditions, which show extensive disease development.

[2] = system: Puccinia recondita f. Sp. Tritici; experiment: Puccinia recondita f. sp. tritici / wheat / leaf disc preventative (brown rust); assay type: in vivo; conditions: foliar, 200 ppm in the applied formulation, wheat leaf segments, preventative, assessed 7 to 9 days after application, read-out: disease control compared to untreated control leaf disks
Method: (§1) Leaf disks or leaf segments of various plant species are cut from plants grown in a greenhouse. The cut leaf disks or segments are placed in multiwell plates (24-well format) onto water agar. The leaf disks are sprayed with a test solution before (preventative) or after (curative) inoculation. Compounds to be tested are prepared as DMSO solutions (max. 10 mg/mL) which are diluted to the appropriate concentration with 0.025% Tween20 just before spraying. The inoculated leaf disks or segments are incubated under defined conditions (temperature, relative humidity, light, etc.) according to the respective test system. A single evaluation of disease level is carried out 3 to 14 days after inoculation, depending on the pathosystem. Percent disease control relative to the untreated check leaf disks or segments is then calculated.
Example 1: Fungicidal Activity Against Puccinia recondita f. Sp. Tritici/Wheat/Leaf Disc Preventative (Brown Rust)
Wheat leaf segments cv. Kanzler were placed on agar in multiwell plates (24-well format) and sprayed with the formulated test compound diluted in water. The leaf disks were inoculated with a spore suspension of the fungus 1 day after application. The inoculated leaf segments were incubated at 19° C. and 75% relative humidity (rh) under a light regime of 12 hours light/12 hours darkness in a climate cabinet and the activity of a compound was assessed as percent disease control compared to untreated when an appropriate level of disease damage appears in untreated check leaf segments (7 to 9 days after application).
(§2) The following compounds at 200 ppm in the applied formulation give at least 80% disease control in this test when compared to untreated control leaf disks under the same conditions, which show extensive disease development.

[3] = system: Puccinia recondita f. Sp. Tritici; experiment: Puccinia recondita f. sp. tritici / wheat / leaf disc curative (brown rust); assay type: in vivo; conditions: foliar, 200 ppm in the applied formulation, wheat leaf segments, curative (applied 1 day after inoculation), assessed 6 to 8 days after application, read-out: disease control compared to untreated control leaf disks
Method: as §1
Example 2: Fungicidal Activity Against Puccinia recondita f. Sp. Tritici/Wheat/Leaf Disc Curative (Brown Rust)
Wheat leaf segments cv. Kanzler are placed on agar in multiwell plates (24-well format). The leaf segments are then inoculated with a spore suspension of the fungus. Plates were stored in darkness at 19° C. and 75% relative humidity. The formulated test compound diluted in water was applied 1 day after inoculation. The leaf segments were incubated at 19° C. and 75% relative humidity under a light regime of 12 hours light/12 hours darkness in a climate cabinet and the activity of a compound was assessed as percent disease control compared to untreated when an appropriate level of disease damage appears in untreated check leaf segments (6 to 8 days after application).
as §2

CON(Cc1ccc(-c2noc(C(F)(F)F)n2)cc1)C(=O)C(=O)OC1COC1 [Compound 3.3, oxetan-3-yl 2-[methoxy-[[4-[5-(trifluoromethyl)-1,2,4-oxadiazol-3-yl]phenyl]methyl]amino]-2-oxo-acetate]
≥ 80%: inhibition at 20 ppm [1] | pest or weed control at 200 ppm [2] | pest or weed control at 200 ppm [3]

CC(=O)C(=O)NCc1ccc(-c2noc(C(F)(F)F)n2)c(F)c1 [Compound 1.25, N-[[3-fluoro-4-[5-(trifluoromethyl)-1,2,4-oxadiazol-3-yl]phenyl]methyl]-2-oxo-propanamide]
≥ 80%: inhibition at 20 ppm [1] | pest or weed control at 200 ppm [2] | pest or weed control at 200 ppm [3]

CCONC(=O)C(=O)N(Cc1ccc(-c2noc(C(F)(F)F)n2)cc1)OC [Compound 4.74, N-ethoxy-N′-methoxy-N′-[[4-[5-(trifluoromethyl)-1,2,4-oxadiazol-3-yl]phenyl]methyl] oxamide]
≥ 80%: inhibition at 20 ppm [1] | pest or weed control at 200 ppm [2] | pest or weed control at 200 ppm [3]

CNC(=O)C(=O)N(C)Cc1ccc(-c2noc(C(F)(F)F)n2)cc1 [Compound 4.99, N,N′-dimethyl-N′-[[4-[5-(trifluoromethyl)-1,2,4-oxadiazol-3-yl]phenyl]methyl] oxamide]
≥ 80%: inhibition at 20 ppm [1] | pest or weed control at 200 ppm [2] | pest or weed control at 200 ppm [3]

CCCC(=O)C(=O)N(CCOC)Cc1ccc(-c2noc(C(F)(F)F)n2)cc1 [Compound 1.9, N-(2-methoxyethyl)-2-oxo-N-[[4-[5-(trifluoromethyl)-1,2,4-oxadiazol-3-yl]phenyl]methyl]pentanamide]
≥ 80%: inhibition at 20 ppm [1] | pest or weed control at 200 ppm [2] | pest or weed control at 200 ppm [3]

CONC(=O)C(=O)N(Cc1ccc(-c2noc(C(F)(F)F)n2)cc1)C1CC1 [Compound 4.103, N′-cyclopropyl-N-methoxy-N′-[[4-[5-(trifluoromethyl)-1,2,4-oxadiazol-3-yl]phenyl]methyl] oxamide]
≥ 80%: inhibition at 20 ppm [1] | pest or weed control at 200 ppm [2] | pest or weed control at 200 ppm [3]

NC(=O)C(=O)N(Cc1ccc(-c2noc(C(F)(F)F)n2)cc1)CC1CCCO1 (stereo not drawn) [Compound 4.14, N′-(tetrahydrofuran-2-ylmethyl)-N′-[[4-[5-(trifluoromethyl)-1,2,4-oxadiazol-3-yl]phenyl]methyl] oxamide]
≥ 80%: inhibition at 20 ppm [1] | pest or weed control at 200 ppm [2] | pest or weed control at 200 ppm [3]

CCCC(=O)C(=O)N(Cc1ccc(-c2noc(C(F)(F)F)n2)cc1)Cc1ccco1 [Compound 1.15, N-(2-furylmethyl)-2-oxo-N-[[4-[5-(trifluoromethyl)-1,2,4-oxadiazol-3-yl]phenyl]methyl]pentanamide]
≥ 80%: inhibition at 20 ppm [1] | pest or weed control at 200 ppm [2] | pest or weed control at 200 ppm [3]

CONC(=O)C(=O)N(Cc1ccc(-c2noc(C(F)(F)F)n2)cc1)OC [Compound 4.78, N,N′-dimethoxy-N′-[[4-[5-(trifluoromethyl)-1,2,4-oxadiazol-3-yl]phenyl]methyl] oxamide]
≥ 80%: inhibition at 20 ppm [1] | pest or weed control at 200 ppm [2] | pest or weed control at 200 ppm [3]

COC(CN(C)C(=O)C(=O)Nc1ccc(-c2noc(C(F)(F)F)n2)cc1)OC [Compound 4.21, N′-(2,2-dimethoxyethyl)-N'-methyl-N-[4-[5-(trifluoromethyl)-1,2,4-oxadiazol-3-yl]phenyl] oxamide]
≥ 80%: inhibition at 20 ppm [1] | pest or weed control at 200 ppm [2] | pest or weed control at 200 ppm [3]

CON(Cc1ccc(-c2noc(C(F)(F)F)n2)cc1)C(=O)C(=O)NC1CC1 [Compound 4.68, N-cyclopropyl-N′-methoxy-N′-[[4-[5-(trifluoromethyl)-1,2,4-oxadiazol-3-yl]phenyl]methyl] oxamide]
≥ 80%: inhibition at 20 ppm [1] | pest or weed control at 200 ppm [2] | pest or weed control at 200 ppm [3]

CON(Cc1ccc(-c2noc(C(F)(F)F)n2)cc1)C(=O)C(=O)NC(C)(C)C [Compound 4.75, N-tert-butyl-N′-methoxy-N′-[[4-[5-(trifluoromethyl)-1,2,4-oxadiazol-3-yl]phenyl]methyl] oxamide]
≥ 80%: inhibition at 20 ppm [1] | pest or weed control at 200 ppm [2] | pest or weed control at 200 ppm [3]

CN(C)C(=O)C(=O)N(Cc1ccc(-c2noc(C(F)(F)F)n2)cc1)Cc1ccco1 [Compound 4.23, N′-(2-furylmethyl)-N,N-dimethyl-N′-[[4-[5-(trifluoromethyl)-1,2,4-oxadiazol-3-yl]phenyl]methyl] oxamide]
≥ 80%: inhibition at 20 ppm [1] | pest or weed control at 200 ppm [2] | pest or weed control at 200 ppm [3]

CON(C)C(=O)C(=O)NCc1ccc(-c2noc(C(F)(F)F)n2)cc1 [Compound 4.48, N′-methoxy-N′-methyl-N-[[4-[5-(trifluoromethyl)-1,2,4-oxadiazol-3-yl]phenyl]methyl] oxamide]
≥ 80%: inhibition at 20 ppm [1] | pest or weed control at 200 ppm [2] | pest or weed control at 200 ppm [3]

CON(Cc1ccc(-c2noc(C(F)(F)F)n2)cc1)C(=O)C(=O)N1CCOCC1 [Compound 4.80, N-methoxy-2-morpholino-2-oxo-N-[[4-[5-(trifluoromethyl)-1,2,4-oxadiazol-3-yl]phenyl]methyl] acetamide]
≥ 80%: inhibition at 20 ppm [1] | pest or weed control at 200 ppm [2] | pest or weed control at 200 ppm [3]

CCN(Cc1ccc(-c2noc(C(F)(F)F)n2)cc1)C(=O)C(=O)NOC [Compound 4.107, N'-ethyl-N-methoxy-N′-N′-[[4-[5-(trifluoromethyl)-1,2,4-oxadiazol-3-yl]phenyl]methyl] oxamide]
≥ 80%: inhibition at 20 ppm [1] | pest or weed control at 200 ppm [2] | pest or weed control at 200 ppm [3]

CC(=O)C(=O)NCc1ccc(-c2noc(C(F)(F)F)n2)c(F)c1F [Compound 1.27, N-[[2,3-difluoro-4-[5-(trifluoromethyl)-1,2,4-oxadiazol-3-yl]phenyl]methyl]-2-oxo-propanamide]
≥ 80%: inhibition at 20 ppm [1] | pest or weed control at 200 ppm [2] | pest or weed control at 200 ppm [3]

CCC(C)NC(=O)C(=O)N(Cc1ccc(-c2noc(C(F)(F)F)n2)cc1)OC (stereo not drawn) [Compound 4.61, N′-methoxy-N-sec-butyl-N′-[[4-[5-(trifluoromethyl)-1,2,4-oxadiazol-3-yl]phenyl]methyl] oxamide]
≥ 80%: inhibition at 20 ppm [1] | pest or weed control at 200 ppm [2] | pest or weed control at 200 ppm [3]

CON(Cc1ccc(-c2noc(C(F)(F)F)n2)cc1)C(=O)C(=O)NCC(C)(C)C [Compound 4.62, N-(2,2-dimethylpropyl)-N′-methoxy-N′-[[4-[5-(trifluoromethyl)-1,2,4-oxadiazol-3-yl]phenyl]methyl] oxamide]
≥ 80%: inhibition at 20 ppm [1] | pest or weed control at 200 ppm [2] | pest or weed control at 200 ppm [3]
